Laboratory results published in patent US20070292888A1, “Methods for Measuring Enzyme Activities in Cells, Blood, Tumors and Tissues” (GEN-PATH PHARMACEUTICALS, INC., priority 2004, published 2007).

Biological target: T1, transketolase (TK) (Mus musculus, UniProt P40142)
T1 construct: from tissue; host or cells: mouse blood, spleen, tumor, kidney, lung, liver (crude lysates)
T1 sequence (P40142 1-623): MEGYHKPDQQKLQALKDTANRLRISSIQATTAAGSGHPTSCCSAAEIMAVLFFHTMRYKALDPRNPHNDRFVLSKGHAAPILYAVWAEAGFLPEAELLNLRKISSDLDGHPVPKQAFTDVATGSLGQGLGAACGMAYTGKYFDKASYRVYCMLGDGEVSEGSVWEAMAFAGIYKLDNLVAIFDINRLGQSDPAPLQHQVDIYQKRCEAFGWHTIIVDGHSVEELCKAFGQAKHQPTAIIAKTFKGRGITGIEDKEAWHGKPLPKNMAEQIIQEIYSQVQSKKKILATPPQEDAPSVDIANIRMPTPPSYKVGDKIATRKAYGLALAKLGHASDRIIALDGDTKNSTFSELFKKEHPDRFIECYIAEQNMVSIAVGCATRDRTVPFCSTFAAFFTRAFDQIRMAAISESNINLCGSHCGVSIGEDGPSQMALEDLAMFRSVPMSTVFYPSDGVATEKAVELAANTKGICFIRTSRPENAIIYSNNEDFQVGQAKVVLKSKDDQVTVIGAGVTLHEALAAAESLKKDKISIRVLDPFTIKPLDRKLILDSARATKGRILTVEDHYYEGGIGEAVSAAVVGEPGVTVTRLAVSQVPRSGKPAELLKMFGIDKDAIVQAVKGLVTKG
Assay: Transketolase activity in blood, tumors and tissues of treated mice (fluorescence NADH assay)
Format: in vivo
Procedure: Blood samples from mice were taken (40 μl whole blood) serially or from mice sacrificed at the end of the experiment. Tissues, such as tumors (e.g. from implantation, xenograft, or arising spontaneously), brain, heart, kidney, liver, lung and spleen were taken and flash frozen in liquid nitrogen or on dry ice and stored in −80° C. until time of assay. Four volumes of cold lysis buffer (20 mM HEPES, pH 7.5, 1 mM EDTA, 0.2 g/l Triton X-100® and 0.2 g/L sodium deoxycholate, supplemented with 1 mM DTT and 1 mM PMSF just before use) were added to the blood, which was dissolved by vortexing. For blood that was frozen before coagulation, a clear lysate was obtained. If coagulation occurred, homogenization was used as described below for tissue. Tissues were suspended in lysis buffer in 10 ml round bottom tubes and homogenized with PowerGen 125® (Fisher Scientific) for four seconds at highest power while submerged in an ice-water bath. This step was repeated after a few seconds, as necessary. The lysate was used right away or else flash frozen and stored at −80° C. until assay time. Eighty microliters (80 μl) of lysate (containing 5 mg tissue/ml lysate for TK and kGDH, 0.5 mg/ml for G6PDH) were put directly in individual wells of a 96-well clear-bottomed assay plate. Twenty microliters (20 μl) of 5× reaction mix was added to initiate each enzymatic reaction.
Each reaction was monitored for the appearance of NADH (for transketolase, alpha-ketoglutarate dehydrogenase, pyruvate dehydrogenase) or NADPH (for glucose-6-phosphate dehydrogenase) at room temperature in a fluorescent plate reader with excitation at 340 nm and emission at 470 nm in kinetic mode. The velocity was determined by the slope of the initial linear range of increasing fluorescence, expressed in fluorescent units (FU)/min. The protein concentration in the lysate was determined using Bradford assays (BioRad) with BSA as a standard. The enzymatic velocity was normalized by the total protein concentration for inter-sample comparison. To obtain reliable results across samples, similar starting protein concentrations were prepared (within approximately 30%) so that the normalized velocity required only small adjustments. This was achieved by weighing the tissue and putting in lysis buffer so that the suspensions contained the same amount of tissue/ml lysis buffer for all samples.
For TK, 15 μl of 5× assay buffer containing final concentrations of 50 mM HEPES, 40 mM KCl, 2.5 mM MgCl2, 5 mM NaArsenate, 1 mM NAD, 2 unit/ml glyceraldehydes-3-phosphate dehydrogenase (GAPDH) was added to 80 μl of lysate. Reaction kinetics were monitored on a fluorescent plate reader to allow any possible background activity via GAPDH to burn out. Then 5 μl of substrate mix containing final concentrations of 0.5 mM ribose-5-phosphate and 0.5 mM xylulose-5-phosphate was added to initiate the reaction. The reaction kinetics were monitored using a fluorescent plate reader, and the slope of the initial linear range was recorded as the velocity of the reaction (FU/min). See FIG. 1 for the reaction scheme.
To investigate the amount of in vivo enzyme inhibition following treatment with an inhibitor, we administered a single dose of N3PT (100 mg/kg, intraperitoneally [i.p.]) and blood, spleen and brain samples were collected at various times from 0-120 hours after dosing. The enzymatic activities were determined as described in Example 1. TK activity was measured in blood and spleen. Because TK activity in the brain is below the detection limit of the assay, kGDH activity was measured in brain samples. Measurements were taken at various time intervals
We measured enzyme activity in an expanded panel of tissues from mice treated with N3PT or OxyT for 11 days i.p., twice per day. Samples were taken from tumors, blood, brain, heart, kidney, lung and spleen, and TK, kGDH and G6PDH activities were determined as described above.

Structure (SMILES): Cc1ccc(C[n+]2csc(CCO)c2C)c(N)n1 [N3PT, 3-[(2-amino-6-methyl-3-pyridinyl)methyl]-5-(2-hydroxyethyl)-4-methyl thiazolium]
- percent inhibition of TK activity in tumors (11 days i.p. twice per day, 100 mg/kg, compared to vehicle control): 70%
- liver enzymatic (TK) activity (11 days i.p. twice per day, liver): hardly affected
- Inhibition of transketolase activity in the spleen (single dose 100 mg/kg i.p., 8-24 hours post-treatment): up to 35%
- Transketolase inhibition at 1 hour post-treatment (single dose 100 mg/kg i.p., 1 hour post-treatment): detectable
- Transketolase inhibition at the final sampling at 120 hours (single dose 100 mg/kg i.p., 120 hours (5 days)): still evident
- inhibition of transketolase activity in the blood (single dose N3PT 100 mg/kg i.p., at the nadir (12 hours)): 80%
